Active and inactive are the calls of the source. The rule behind the calls is not given here.
Legend:
A2780 [1] = experiment: Inhibition of colony formation in human A2780 cells at upto 500 nM incubated for 14 days by crystal violet staining based analysis; type: functional, cell-based; settings: time 14.0 day
A2780 [2] = experiment: Inhibition of colony formation in human A2780 cells assessed as decrease in colony quantity at 10 nM incubated for 14 days by crystal violet staining based analysis; type: functional, cell-based; settings: time 14.0 day
A2780 [3] = experiment: Induction of cell cycle arrest in human A2780 cells assessed as accumulation of cells at G1 phase at 50 nM measured after 96 hrs by PI staining based flow cytometry analysis (reference value: 80.81%); type: functional
A2780 [4] = experiment: Induction of cell cycle arrest in human A2780 cells assessed as accumulation of cells at S phase at 100 nM measured after 96 hrs by PI staining based flow cytometry analysis (reference value: 14.7%); type: functional
A2780 [5] = experiment: Induction of cell cycle arrest in human A2780 cells assessed as accumulation of cells at G2 phase at 200 nM measured after 96 hrs by PI staining based flow cytometry analysis (reference value: 4.49%); type: functional
A2780 [6] = experiment: Induction of apoptosis in human A2780 cells assessed as viable cells at 50 nM incubated for 96 hrs by Annexin-V/FITC and PI staining based flow cytometry analysis (reference value: 89.2%); type: functional; settings: read-out: Activity
A2780 [7] = experiment: Induction of apoptosis in human A2780 cells assessed as viable cells at 200 nM incubated for 96 hrs by Annexin-V/FITC and PI staining based flow cytometry analysis (reference value: 89.2%); type: functional; settings: read-out: Activity
A2780 [8] = experiment: Induction of apoptosis in human A2780 cells assessed as early apoptotic cells at 100 nM incubated for 96 hrs by Annexin-V/FITC and PI staining based flow cytometry analysis (reference value: 14.14%); type: functional
A2780 [9] = experiment: Induction of apoptosis in human A2780 cells assessed as late apoptotic cells at 200 nM incubated for 96 hrs by Annexin-V/FITC and PI staining based flow cytometry analysis (reference value: 3.79%); type: functional
A2780 [10] = experiment: Induction of apoptosis in human A2780 cells assessed as necrotic cells at 100 nM incubated for 96 hrs by Annexin-V/FITC and PI staining based flow cytometry analysis (reference value: 2.07%); type: functional
A2780 [11] = experiment: Induction of intracellular ROS generation in human A2780 cells at upto 500 nM measured after 96 hrs by DCFH-DA staining based immunofluorescence assay; type: functional, cell-based
A2780 [12] = experiment: Downregulation of NDUFB8 level in human A2780 cells by Western blot analysis; type: functional, cell-based; settings: dose <= 500.0 nM
A2780 [13] = experiment: Inhibition of MT-ND5 expression in human A2780 cells at 100 nM incubated for 12 hrs by RNA sequencing analysis; type: functional, cell-based
A2780 [14] = experiment: Inhibition of MT-CYB expression in human A2780 cells at 100 nM incubated for 12 hrs by RNA sequencing analysis; type: functional, cell-based
A2780 [15] = experiment: Inhibition of MT-CO2 expression in human A2780 cells at 100 nM incubated for 12 hrs by RNA sequencing analysis; type: functional, cell-based
NCI-H3122 = experiment: Antiproliferative activity against human NCI-H3122 cells incubated for 168 hrs by SRB method; type: functional, cell-based; settings: NCI-H3122, 168 h
NCI-H1975 = experiment: Antiproliferative activity against human NCI-H1975 cells incubated for 168 hrs by SRB method; type: functional, cell-based; settings: NCI-H1975, 168 h
MDA-MB-231 = experiment: Antiproliferative activity against human MDA-MB-231 cells incubated for 168 hrs by SRB method; type: functional, cell-based; settings: MDA-MB-231, 168 h
MIA PaCa-2 = experiment: Antiproliferative activity against human MIA PaCa-2 cells incubated for 168 hrs by SRB method; type: functional, cell-based; settings: MIA PaCa-2, 168 h
IMR-90 = experiment: Antiproliferative activity against human IMR-90 cells incubated for 168 hrs by SRB method; type: functional, cell-based; settings: IMR-90, 168 h
Cytochrome P450 2C19 = Cytochrome P450 2C19 (Homo sapiens, UniProt P33261); experiment: Inhibition of CYP2C19 (unknown origin) using S-mephenytoin as substrate in presence of NADPH by LC/MS/MS analysis; type: ADME
Cytochrome P450 2C19, sequence (P33261 whole entry): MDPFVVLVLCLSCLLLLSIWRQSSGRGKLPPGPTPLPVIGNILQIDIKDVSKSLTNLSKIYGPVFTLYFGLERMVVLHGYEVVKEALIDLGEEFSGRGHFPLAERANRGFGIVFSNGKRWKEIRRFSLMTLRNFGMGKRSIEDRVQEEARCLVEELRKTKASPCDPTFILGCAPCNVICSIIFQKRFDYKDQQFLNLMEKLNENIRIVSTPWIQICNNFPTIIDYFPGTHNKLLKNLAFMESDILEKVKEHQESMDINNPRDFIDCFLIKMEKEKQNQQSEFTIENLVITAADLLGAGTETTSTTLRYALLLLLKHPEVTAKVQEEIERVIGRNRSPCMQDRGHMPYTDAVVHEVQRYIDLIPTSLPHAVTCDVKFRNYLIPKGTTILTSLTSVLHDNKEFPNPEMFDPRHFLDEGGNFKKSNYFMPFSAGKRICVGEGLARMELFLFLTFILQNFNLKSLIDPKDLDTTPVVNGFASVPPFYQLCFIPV

Cytochrome P450 3A4 = Cytochrome P450 3A4 (Homo sapiens, UniProt P08684); experiment: Inhibition of […] (unknown origin) using midazolam as substrate in presence of NADPH by LC/MS/MS analysis; type: ADME
Cytochrome P450 3A4, sequence (P08684 whole entry): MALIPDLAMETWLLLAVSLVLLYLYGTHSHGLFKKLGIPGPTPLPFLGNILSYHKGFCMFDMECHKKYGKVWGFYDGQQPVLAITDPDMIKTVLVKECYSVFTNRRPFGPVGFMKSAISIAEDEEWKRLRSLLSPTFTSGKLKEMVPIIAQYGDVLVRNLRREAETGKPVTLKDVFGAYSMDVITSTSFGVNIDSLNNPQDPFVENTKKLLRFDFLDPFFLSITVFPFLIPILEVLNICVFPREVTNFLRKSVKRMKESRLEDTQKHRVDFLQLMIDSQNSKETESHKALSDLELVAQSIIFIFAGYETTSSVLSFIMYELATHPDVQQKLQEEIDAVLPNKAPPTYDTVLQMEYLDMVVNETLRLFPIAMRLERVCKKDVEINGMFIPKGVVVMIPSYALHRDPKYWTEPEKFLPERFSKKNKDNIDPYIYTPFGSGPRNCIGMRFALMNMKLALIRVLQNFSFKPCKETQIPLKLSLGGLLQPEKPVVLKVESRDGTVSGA

Cytochrome P450 2D6 = Cytochrome P450 2D6 (Homo sapiens, UniProt P10635); experiment: Inhibition of CYP2D6 (unknown origin) using bufuralol as substrate in presence of NADPH by LC/MS/MS analysis; type: ADME
Cytochrome P450 2D6, sequence (P10635 whole entry): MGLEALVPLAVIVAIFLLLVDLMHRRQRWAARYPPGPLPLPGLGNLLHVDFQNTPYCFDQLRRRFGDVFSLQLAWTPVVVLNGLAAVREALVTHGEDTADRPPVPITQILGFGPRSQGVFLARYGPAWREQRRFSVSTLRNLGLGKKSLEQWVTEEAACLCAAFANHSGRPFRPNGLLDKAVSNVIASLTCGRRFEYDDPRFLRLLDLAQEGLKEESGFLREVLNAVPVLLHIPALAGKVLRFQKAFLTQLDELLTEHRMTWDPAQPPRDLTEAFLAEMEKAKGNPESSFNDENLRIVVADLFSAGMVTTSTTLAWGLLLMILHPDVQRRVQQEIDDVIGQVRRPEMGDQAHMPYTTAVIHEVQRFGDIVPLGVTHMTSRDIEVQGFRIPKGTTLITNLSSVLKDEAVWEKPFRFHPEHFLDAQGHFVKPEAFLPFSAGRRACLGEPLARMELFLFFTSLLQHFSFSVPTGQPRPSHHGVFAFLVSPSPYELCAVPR

[16] = Cmax in ICR mouse at 1 mg/kg, iv measured upto 24 hrs by LC-MS/MS analysis; type: ADME, organism-based; design: time < 24 hrs, dose 1 mg/kg, route iv; settings: in vivo
[17] = Cmax in ICR mouse at 10 mg/kg, po measured upto 24 hrs by LC-MS/MS analysis; type: ADME, organism-based; design: time < 24 hrs, dose 10 mg/kg, route po; settings: in vivo
[18] = AUC (0 to infinity) in ICR mouse at 1 mg/kg, iv measured upto 24 hrs by LC-MS/MS analysis; type: ADME, organism-based; design: time < 24 hrs, dose 1 mg/kg, route iv; settings: in vivo
[19] = Volume of distribution at steady state in ICR mouse at 1 mg/kg, iv measured upto 24 hrs by LC-MS/MS analysis; type: ADME, organism-based; settings: in vivo, read-out: Vdss
[20] = MRT in ICR mouse at 1 mg/kg, iv measured upto 24 hrs by LC-MS/MS analysis; type: ADME, organism-based; settings: in vivo
[21] = Oral bioavailability in ICR mouse at 10 mg/kg measured upto 24 hrs by LC-MS/MS analysis; type: ADME, organism-based; settings: in vivo
A2780 [22] = experiment: Inhibition of mitochondrial transcript in human A2780 cells by RT-qPCR analysis; type: functional, cell-based; settings: dose 0.01-1 µM
A2780 [23] = experiment: Effect on 28S mRNA level in human A2780 cells by RT-qPCR analysis; type: functional, cell-based
A2780 [24] = experiment: Effect on beta-actin mRNA level in human A2780 cells by RT-qPCR analysis; type: functional, cell-based
A2780 [25] = experiment: Inhibition of mitochondrial transcript in human A2780 cells incubated for 12 hrs followed by compound removal and measured after 12 hrs by RT-qPCR analysis; type: functional, cell-based
A2780 [26] = experiment: Inhibition of mitochondrial transcript in human A2780 cells incubated for 12 hrs followed by compound removal and measured after 24 hrs by RT-qPCR analysis; type: functional, cell-based
A2780 [27] = experiment: Antitumor activity against human A2780 cells xenografted in BALB/c nude mouse model assessed as reduction in tumor weight at 50 mg/kg, po administered daily and measured after 27 days relative to control; type: functional; design: scale not given: the % may be the effect or the level left; settings: time 27 day
A2780 [28] = experiment: Antitumor activity against human A2780 cells xenografted in BALB/c nude mouse model assessed as reduction in ATP5A level at 100 mg/kg, po by immunoblotting analysis; type: functional, organism-based
A2780 [29] = experiment: Antitumor activity against human A2780 cells xenografted in BALB/c nude mouse model assessed as reduction in UQCRC2 level at 100 mg/kg, po by immunoblotting analysis; type: functional, organism-based
A2780 [30] = experiment: Antitumor activity against human A2780 cells xenografted in BALB/c nude mouse model assessed as reduction in COX1 level at 100 mg/kg, po by immunoblotting analysis; type: functional, organism-based
[31] = Toxicity in Balb/c mouse assessed as effect on heart at 100 mg/kg by H and E staining based analysis; type: organism-based; settings: in vivo

Compound: Cc1ccc(-c2cc(=O)oc3cc(O[C@H](C)C(=O)N4CC5CCC(C4)N5C)ccc23)c(C)c1
- inhibition (A2780 [1]): Active
- inhibition (A2780 [2]): Active
- Activity (A2780 [3]): 85.51%
- Activity (A2780 [4]): 9.15%
- Activity (A2780 [5]): 3.16%
- viability at 0.05 µM (A2780 [6]): 92.3%
- viability at 0.2 µM (A2780 [7]): 90.7%
- Activity (A2780 [8]): 0.28%
- Activity (A2780 [9]): 4.58%
- Activity (A2780 [10]): 4.46%
- Activity (A2780 [11]): inactive
- Activity (A2780 [12]): Dose-Dependent Effect
- inhibition (A2780 [13]): Active
- inhibition (A2780 [14]): Active
- inhibition (A2780 [15]): Active
- IC50 (NCI-H3122): > 10 µM
- IC50 (NCI-H1975): 0.108 µM
- IC50 (MDA-MB-231): > 10 µM
- IC50 (MIA PaCa-2): 0.088 µM
- IC50 (IMR-90): > 50 µM
- IC50 (Cytochrome P450 2C19): 31.5 µM
- IC50 (Cytochrome P450 3A4): > 40 µM
- IC50 (Cytochrome P450 2D6): > 40 µM
- Cmax [16]: 364 ng/mL
- Cmax [17]: 369 ng/mL
- AUC(0-inf) [18]: 439 ng·h/mL
- Vd [19]: 6.4 L/kg
- MRT [20]: 2.66 h
- bioavailability [21]: 43.2%
- inhibition (A2780 [22]): Dose-Dependent Effect
- Activity (A2780 [23]): inactive
- Activity (A2780 [24]): inactive
- inhibition (A2780 [25]): inactive
- inhibition (A2780 [26]): inactive
- Activity (A2780 [27]): 54.82%
- Activity (A2780 [28]): Active
- Activity (A2780 [29]): Active
- Activity (A2780 [30]): Active
- Activity [31]: Non-Toxic
